Laboratory results reported in PubChem BioAssay (NCI).
Where “and” joins values, the source holds several entries; their conditions need not be identical. Equal entries are not always repeated.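 Following 48 hours of exposure in 96-well plates, responses at five concentrations were used to interpolate endpoints linearly. GI50 is the concentration that inhibits growth by half. Definition used: TGI = concentration required for complete inhibition of growth.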

Legend:
Test in all cases: inhibition of tumour cell growth, NCI panel, 48 h
SK-MEL-28 melanoma = tested on: SK-MEL-28 melanoma
NCI-H23 lung = tested on: NCI-H23 lung
LOX IMVI melanoma = tested on: LOX IMVI melanoma
A498 renal = tested on: A498 renal
HCT-15 colon = tested on: HCT-15 colon
HL-60(TB) leukemia = tested on: HL-60(TB) leukemia
NCI/ADR-RES ovarian = tested on: NCI/ADR-RES ovarian
A549 NSCLC = tested on: A549 NSCLC
COLO 205 colon = tested on: COLO 205 colon
SF-295 CNS = tested on: SF-295 CNS
SNB-75 CNS = tested on: SNB-75 CNS
MALME-3M melanoma = tested on: MALME-3M melanoma

Row | SMILES | TGI (SK-MEL-28 melanoma) | TGI (NCI-H23 lung) | TGI (LOX IMVI melanoma) | TGI (A498 renal) | TGI (HCT-15 colon) | TGI (HL-60(TB) leukemia) | TGI (NCI/ADR-RES ovarian) | TGI (A549 NSCLC) | TGI (COLO 205 colon) | TGI (SF-295 CNS) | TGI (SNB-75 CNS) | TGI (MALME-3M melanoma) | GI50 (SK-MEL-28 melanoma) | GI50 (LOX IMVI melanoma) | GI50 (A498 renal) | GI50 (HL-60(TB) leukemia) | GI50 (COLO 205 colon) | GI50 (SF-295 CNS) | GI50 (SNB-75 CNS) | GI50 (MALME-3M melanoma)
1 | c1ccc(C[n+]2cccc(-c3cc4ccccc4[nH]3)c2)cc1 | 38 µM | 71 µM | 37.9 µM | > 100 µM | > 100 µM | 40.5 µM | > 100 µM | > 100 µM | 28.8 µM | > 100 µM | > 100 µM | 34.1 µM |  |  |  |  |  |  |  | 
2 | CCCCC(=O)Oc1ccc2c(C)cc(=O)oc2c1 | > 100 µM | > 100 µM | > 100 µM | > 100 µM |  | > 100 µM | > 100 µM | > 100 µM | > 100 µM | > 100 µM | > 100 µM | > 100 µM |  |  |  |  |  |  |  | 
3 | COc1ccc(Cc2nccc3cc(OC)c(OC)cc23)cc1OC | > 100 µM | > 100 µM | > 100 µM | > 100 µM | > 100 µM | > 100 µM | > 100 µM | > 100 µM | > 100 µM | > 100 µM | > 100 µM |  |  |  |  |  |  |  |  | 
4 | c1ccc(-c2nnc(-c3nsc4ccccc34)o2)cc1 | > 100 µM | > 100 µM | > 100 µM |  | > 100 µM | > 100 µM |  | > 100 µM | > 100 µM |  | 19.7 µM |  |  |  |  |  |  |  |  | 
5 | CCOC(=O)C1=C(C)N(NC(N)=O)C2(O)CCCC(=O)C12C (stereo not given) | > 100 µM | > 100 µM | > 100 µM | > 100 µM | > 100 µM |  |  | > 100 µM | > 100 µM | > 100 µM | > 100 µM | > 100 µM |  |  |  |  |  |  |  | 
6 | CC(C)C1OC(/C=C/c2ccccc2)OCC1(C)C (stereo not given) | > 100 µM | 98.9 µM | 36.6 µM | 63.7 µM | > 100 µM | 38.3 µM | > 100 µM | > 100 µM | 31.2 µM | > 100 µM | 78.6 µM | 25.8 µM |  |  |  |  |  |  |  | 
7 | O=C(O)c1oc(C(=O)O)c(C(=O)O)c1C(=O)O | > 100 µM | > 100 µM | > 100 µM | > 100 µM | > 100 µM | > 100 µM | > 100 µM | > 100 µM |  | > 100 µM |  | > 100 µM |  |  |  |  |  |  |  | 
8 | COc1cccc(CC2Cc3ccccc3CC(=O)N2)c1 (stereo not given) | > 100 µM | > 100 µM | 70.9 µM |  |  | > 100 µM | > 100 µM | > 100 µM | > 100 µM | > 100 µM | > 100 µM |  |  |  |  |  |  |  |  | 
9 | CCCCS(=O)(=O)Nc1ccc(Nc2c3ccccc3nc3ccccc23)c(OC)c1 | 16.4 µM | 11.3 µM | 3.85 µM | 9.85 µM | 9.11 µM |  | 22 µM | 7.07 µM | 20.2 µM | 9.84 µM | 7.69 µM | 7.99 µM |  |  |  |  |  |  |  | 
10 | N=C(N)SCc1cccc2c(=O)cc(-c3ccccc3)oc12 | 6.37 µM | 31.3 µM | 28.3 µM | 35.8 µM | > 65.7 µM | 13.1 µM | > 100 µM | 29 µM | 27.3 µM | 26.5 µM | 19.4 µM | 27.2 µM |  |  |  |  |  |  |  | 
11 | C/C(=C\c1ccc(Cl)c(Cl)c1)[N+](=O)[O-] | 3.14 µM and 4.81 µM | 5.36 µM | 2.62 µM and 0.955 µM | 21.5 µM and 14.8 µM | 4.13 µM and 3.18 µM | 6.02 µM and 5.95 µM |  | 3.41 µM and 4.52 µM | 3.27 µM | 5.72 µM and 8.01 µM |  | 3.36 µM and 3.83 µM | 1.75 µM | 1.19 µM | 8.21 µM | 1.94 µM | 1.78 µM | 2.19 µM | 1.46 µM | 1.61 µM
12 | OC1CN2Cc3cc4c(cc3[C@]13C=C[C@@H](O)CC23)OCO4 (stereo not given in full) | > 100 µM | > 100 µM | > 100 µM | > 100 µM | > 100 µM | 75.3 µM | > 100 µM | > 100 µM | > 100 µM | > 100 µM |  | > 100 µM |  |  |  |  |  |  |  | 
13 | NC(CCOCCP(=O)(O)CCOCCC(N)C(=O)O)C(=O)O (stereo not given) | > 100 µM | > 100 µM |  |  | > 100 µM | > 100 µM | > 100 µM | > 100 µM | > 100 µM | > 100 µM | > 100 µM |  |  |  |  |  |  |  |  | 
14 | O=C(O)C12CCCC(CCC1)C2 | > 100 µM | > 100 µM | > 100 µM | > 100 µM | > 100 µM | > 100 µM |  | > 100 µM | > 100 µM | > 100 µM | > 100 µM | > 100 µM |  |  |  |  |  |  |  | 
15 | O=C1OCc2cccc3c2-c2c1cccc2C(=O)OC3 | > 100 µM | > 100 µM |  |  | > 100 µM | > 100 µM |  |  | > 100 µM | > 100 µM |  | > 100 µM |  |  |  |  |  |  |  | 
16 | CC(C)NCCC(O)c1cc2ccccc2o1 (stereo not given) | > 100 µM | > 100 µM | > 100 µM | > 100 µM | > 100 µM |  | > 100 µM | > 100 µM | > 100 µM | > 100 µM | > 100 µM | > 100 µM |  |  |  |  |  |  |  | 
17 | O=C1/C(=C/c2ccc(Cl)cc2)N=C(c2ccccc2)N1c1ccc(S(=O)(=O)Nc2nccs2)cc1 | > 100 µM | > 100 µM | > 100 µM | > 100 µM | > 100 µM | 75.6 µM | > 100 µM | > 100 µM | 40.7 µM | > 100 µM | > 100 µM | > 100 µM |  |  |  |  |  |  |  | 
